According to patent US8778921B2, “Ansamycin hydroquinone compositions” (Infinity Pharmaceuticals, Inc., priority 2008, dated 2014):
Where a name gives a salt, the structure may show the parent alone.

Assay: Stability at 40° C. and 75% relative humidity (percent purity by HPLC)
Assay type: physicochemical
Conditions: 40° C. and 75% RH; for Percent Purity of 17-AAG T = 0 Days / Percent Purity of 17-AAG T = 21 Days: Table 8; for Percent Purity of 17-BAG T = 0 Days / Percent Purity of 17-BAG T = 21 Days: Table 4; for Percent Purity of 17-FEAG T = 0 Days / Percent Purity of 17-FEAG T = 21 Days: Table 6
Method: As used herein, a “stable composition” refers a composition comprising a sulfur-containing compound and a baseline amount of the compound of formula (I) (e.g., such as percent purity as measured by HPLC) such that, after being subjected to standard stability conditions (e.g., 40° C. and 75% relative humidity) for a specified period of time (e.g., 1 day, 2 days, 3 days, 4 days, 5 days, 7 days, 14 days, 21 days, or 30 days), at least about 80% of the original amount of the compound of formula (I) remains in the composition (i.e., has not oxidized to a compound of formula (II) or degraded to other by-products). In certain embodiments, at least about 85%, at least about 90%, at least about 91%, at least about 92%, at least about 93%, at least about 94%, or at least about 95% of the original amount of the hydroquinone compound of formula (I) remains in the composition for a specified period of time (e.g., 1 day, 2 days, 3 days, 4 days, 5 days, 7 days, 14 days, 21 days, or 30 days).
The stability data for 17-AG-HQ of Example 2 when kept at 40° C. and 75% relative humidity (RH) is depicted in FIG. 8 (see Table 2 for tabulated stability data). It was observed that 17-AG-HQ of Example 2 completely oxidizes to its quinone form in two weeks at 40° C. and […] as determined by HPLC.

[1] = Table 14, formulations of 17-AG-HQ of Example 3
[2] = Table 15, NaHSO3/mineral oil formulation of 17-AG-HQ of Example 3

SMILES: C=CCNc1c(O)cc2c(O)c1C[C@@H](C)C[C@H](OC)[C@H](O)[C@@H](C)/C=C(\C)[C@H](OC(N)=O)[C@@H](OC)/C=C\C=C(/C)C(=O)N2 [17-AAG-HQ of Example 11A, 17-allylamino-geldanamycin hydroquinone]
- stability over a period of time compared to 17-AAG-HQ of Example 11B: greater stability
- Percent Purity of 17-AAG T = 0 Days (T = 0 Days): 99%
- Percent Purity of 17-AAG T = 21 Days (T = 21 Days): 97%

SMILES: C=CCNc1c(O)cc2c(O)c1C[C@@H](C)C[C@H](OC)[C@H](O)[C@@H](C)/C=C(\C)[C@H](OC(N)=O)[C@@H](OC)/C=C\C=C(/C)C(=O)N2 [17-AAG-HQ of Example 11B, 17-allylamino-geldanamycin hydroquinone]
- Percent Purity of 17-AAG T = 0 Days (T = 0 Days): 97%
- Percent Purity of 17-AAG T = 21 Days (T = 21 Days): 2%
- Percent Purity of 17-AAG-HQ T = 0 Days (Table 19, Example 11B Formulations, T = 0 Days): 97%
- Percent Purity of 17-AAG-HQ T = 21 Days (Table 19, Example 11B Formulations, T = 21 Days): 2%

SMILES: CO[C@H]1/C=C\C=C(/C)C(=O)Nc2cc(O)c(N)c(c2O)C[C@@H](C)C[C@H](OC)[C@H](O)[C@@H](C)/C=C(\C)[C@@H]1OC(N)=O [17-AG-HQ of Example 3, 17-amino-geldanamycin hydroquinone]
- stability over a period of time compared to 17-AG-HQ of Example 2: greater stability
- Percent Purity of 17-AG-HQ T = 0 Days (Table 2, T = 0 Days): 97%
- Percent Purity of 17-AG-HQ T = 2 Days (Table 2, T = 2 Days): 93%
- Percent Purity of 17-AG-HQ T = 5 Days (Table 2): 91%
- Percent Purity of 17-AG-HQ T = 14 Days (Table 2): 87%
- Percent Purity of 17-AG-HQ T = 21 Days (Table 2, T = 21 Days): 81%
- Percent Purity of 17-AG-HQ T = 30 Days (Table 2): 79%
- Percent Purity of 17-AG-HQ T = 0 Days (Table 14, formulations of 17-AG-HQ of Example 3, T = 0 Days): 97%
- Percent Purity of 17-AG-HQ T = 5 Days [1]: 91%
- Percent Purity of 17-AG-HQ T = 14 Days [1]: 87%
- Percent Purity of 17-AG-HQ T = 21 Days (Table 14, formulations of 17-AG-HQ of Example 3, T = 21 Days): 81%
- Percent Purity of 17-AG-HQ T = 0 Days (Table 15, NaHSO3/mineral oil formulation of 17-AG-HQ of Example 3, T = 0 Days): 97%
- Percent Purity of 17-AG-HQ T = 5 Days [2]: 91%
- Percent Purity of 17-AG-HQ T = 14 Days [2]: 87%
- Percent Purity of 17-AG-HQ T = 21 Days (Table 15, NaHSO3/mineral oil formulation of 17-AG-HQ of Example 3, T = 21 Days): 81%

SMILES: CO[C@H]1/C=C\C=C(/C)C(=O)Nc2cc(O)c(N)c(c2O)C[C@@H](C)C[C@H](OC)[C@H](O)[C@@H](C)/C=C(\C)[C@@H]1OC(N)=O [17-AG-HQ of Example 4, 17-amino-geldanamycin hydroquinone]
- stability over a period of time compared to Examples 2 and 3: greater stability
- Percent Purity of 17-AG-HQ T = 0 Days (Table 2, T = 0 Days): 99%
- Percent Purity of 17-AG-HQ T = 30 Days (Table 2): 97%

SMILES: CO[C@H]1/C=C\C=C(/C)C(=O)Nc2cc(O)c(N)c(c2O)C[C@@H](C)C[C@H](OC)[C@H](O)[C@@H](C)/C=C(\C)[C@@H]1OC(N)=O [17-AG-HQ of Example 5, 17-amino-geldanamycin hydroquinone]
- stability over a period of time compared to Examples 2, 3 and 4: greatest stability
- Percent Purity of 17-AG-HQ T = 0 Days (Table 2, T = 0 Days): 99%
- Percent Purity of 17-AG-HQ T = 30 Days (Table 2): 98%

SMILES: CO[C@H]1/C=C\C=C(/C)C(=O)Nc2cc(O)c(N)c(c2O)C[C@@H](C)C[C@H](OC)[C@H](O)[C@@H](C)/C=C(\C)[C@@H]1OC(N)=O [17-AG-HQ of Example 6A, 17-amino-geldanamycin hydroquinone]
- stability over a period of time compared to 17-AG-HQ of Example 6B: greater stability
- Percent Purity of 17-AG-HQ T = 0 Days (Table 2, T = 0 Days): 97%
- Percent Purity of 17-AG-HQ T = 21 Days (Table 2, T = 21 Days): 83%

SMILES: CO[C@H]1/C=C\C=C(/C)C(=O)Nc2cc(O)c(N)c(c2O)C[C@@H](C)C[C@H](OC)[C@H](O)[C@@H](C)/C=C(\C)[C@@H]1OC(N)=O [17-AG-HQ of Example 6B, 17-amino-geldanamycin hydroquinone]
- time in which the hydroquinone completely oxidizes to its quinone form (determined by HPLC): 3 weeks
- Percent Purity of 17-AG-HQ T = 0 Days (Table 2, T = 0 Days): 97%
- Percent Purity of 17-AG-HQ T = 21 Days (Table 2, T = 21 Days): 13%
- Percent Purity of 17-AG-HQ T = 0 Days (Table 16, Example 6B Formulations, T = 0 Days): 97%
- Percent Purity of 17-AG-HQ T = 21 Days (Table 16, Example 6B Formulations, T = 21 Days): 13%

SMILES: CO[C@H]1/C=C\C=C(/C)C(=O)Nc2cc(O)c(N)c(c2O)C[C@@H](C)C[C@H](OC)[C@H](O)[C@@H](C)/C=C(\C)[C@@H]1OC(N)=O [17-AG-HQ-HCl salt, 17-amino geldanamycin hydroquinone HCl Salt]
- Percent Purity of 17-AG-HQ T = 0 Days (Table 2, T = 0 Days): 99%
- Percent Purity of 17-AG-HQ T = 14 Days (Table 2): 88%
- Percent Purity of 17-AG-HQ T = 30 Days (Table 2): 74%

SMILES: CO[C@H]1/C=C\C=C(/C)C(=O)Nc2cc(O)c(NCc3ccccc3)c(c2O)C[C@@H](C)C[C@H](OC)[C@H](O)[C@@H](C)/C=C(\C)[C@@H]1OC(N)=O [17-BAG-HQ of Example 8A, 17-benzylamino-geldanamycin hydroquinone]
- stability over a period of time compared to 17-BAG-HQ of Example 8B: greater stability
- Percent Purity of 17-BAG T = 0 Days (T = 0 Days): 98%
- Percent Purity of 17-BAG T = 21 Days (T = 21 Days): 96%

SMILES: CO[C@H]1/C=C\C=C(/C)C(=O)Nc2cc(O)c(NCc3ccccc3)c(c2O)C[C@@H](C)C[C@H](OC)[C@H](O)[C@@H](C)/C=C(\C)[C@@H]1OC(N)=O [17-BAG-HQ of Example 8B, 17-benzylamino-geldanamycin hydroquinone]
- Percent Purity of 17-BAG T = 0 Days (T = 0 Days): 98%
- Percent Purity of 17-BAG T = 21 Days (T = 21 Days): 11%
- Percent Purity of 17-BAG-HQ T = 0 Days (Table 17, Example 8B Formulations, T = 0 Days): 98%
- Percent Purity of 17-BAG-HQ T = 21 Days (Table 17, Example 8B Formulations, T = 21 Days): 11%

SMILES: CO[C@H]1/C=C\C=C(/C)C(=O)Nc2cc(O)c(NCCF)c(c2O)C[C@@H](C)C[C@H](OC)[C@H](O)[C@@H](C)/C=C(\C)[C@@H]1OC(N)=O [17-FEAG-HQ of Example 10A, 17-(2-fluoroethylamino)-geldanamycin hydroquinone]
- stability over a period of time compared to 17-FEAG-HQ of Example 10B: greater stability
- Percent Purity of 17-FEAG T = 0 Days (T = 0 Days): 99%
- Percent Purity of 17-FEAG T = 21 Days (T = 21 Days): 96%

SMILES: CO[C@H]1/C=C\C=C(/C)C(=O)Nc2cc(O)c(NCCF)c(c2O)C[C@@H](C)C[C@H](OC)[C@H](O)[C@@H](C)/C=C(\C)[C@@H]1OC(N)=O [17-FEAG-HQ of Example 10B, 17-(2-fluoroethylamino)-geldanamycin hydroquinone]
- Percent Purity of 17-FEAG T = 0 Days (T = 0 Days): 97%
- Percent Purity of 17-FEAG T = 21 Days (T = 21 Days): 0%
- Percent Purity of 17-FEAG-HQ T = 0 Days (Table 18, Example 10B Formulations, T = 0 Days): 97%
- Percent Purity of 17-FEAG-HQ T = 21 Days (Table 18, Example 10B Formulations, T = 21 Days): 0%
